Values quoted from earlier work, collected in US7141235B2, “Stabilized gas emulsion containing phospholipid for ultrasound contrast enhancement” (Imcor Pharmaceutical Co., priority 1993, dated 2006).

Conditions: in water

Row | gel to liquid-crystal phase transition temperature [°C] | Structure (SMILES)
1 | 23.5 | CCCCCCCCCCCCCC(=O)OC[C@H](COP(=O)([O-])OCC[N+](C)(C)C)OC(=O)CCCCCCCCCCCCC [DMPC, dimyristoyl phosphatidylcholine]
2 | 55.5 | CCCCCCCCCCCCCCCCCC(=O)OC[C@H](COP(=O)([O-])OCC[N+](C)(C)C)OC(=O)CCCCCCCCCCCCCCCCC [DSPC, distearoyl phosphatidylcholine]
